Measured values taken from patent publication US20230022745A1, “Methods for Labeling a Population of RNA Molecules” (priority 2013, published 2023).
“Also recorded” adds a separate entry of the source.

Tests used:
Type in all cases: biochemical
[1] = system: Vaccinia Capping Enzyme (VCE)
[2] = system: Vaccinia Capping Enzyme (VCE); remark: listed apart in the source
[3] = system: Cap0 or Cap1 25 mer transcript; conditions: 5-135 ng protein, 10 minutes at 30° C.
[4] = system: 3′ DTB-GTP capped 25mer T7 transcript; conditions: 30 minutes at 37° C. in 1× Thermopol Buffer

## 2′-DBT-TEG-guanosine 5′ triphosphate [2′ DBT-TEG-GTP]
[1]
  recovery of transcript after streptavidin binding and biotin elution: little to no P^32; also recorded: no better than control GTP for recovery

## 3′-DBT-TEG-guanosine 5′ triphosphate [3′ DBT-TEG-GTP]
[2]
  capping of 5′ diphosphate RNA by VCE: substrate for capping
  capping of 5′ triphosphorylated RNA by VCE: effectively caps
[1]
  recovery of transcript after streptavidin binding and biotin elution: selectively bound to the streptavidin beads and eluted with 10 mM biotin; also recorded: recovered after binding to streptavidin

## C#CCO[C@H]1[C@@H](O)[C@H](n2cnc3c(=O)[nH]c(N)nc32)O[C@@H]1COP(=O)(O)OP(=O)(O)OP(=O)(O)O [3′ propargyl-GTP, 3′(O-Propargyl) Guanosine 5′ Triphosphate]
[2]
  capping of 5′ triphosphorylated RNA by VCE: efficiently incorporated as a modified cap

## [N-]=[N+]=N[C@H]1C[C@H](n2cnc3c(=O)[nH]c(N)nc32)O[C@@H]1COP(=O)(O)OP(=O)(O)OP(=O)(O)O [3′-azido-GTP, 3′-Azido-2′,3′ ddGTP, reference compound]
[2]
  capping of 5′ triphosphorylated RNA by VCE: can be capped

## Nc1nc2c(ncn2[C@@H]2O[C@H](COP(=O)(O)OP(=O)(O)OP(=O)(O)O)[C@@H](O)[C@H]2O)c(=O)[nH]1 [GTP, reference compound]
[1]
  recovery of transcript after streptavidin binding and biotin elution: little to no P^32

B1: S. pombe HNT3 protein (protein, UniProt O74859 1-232, looked up)
Aprataxin-like protein: MSVHKTNDAFKVLMNSAKEPIVEDIPKKYRKQSFRDNLKVYIESPESYKNVIYYDDDVVLVRDMFPKSKMHLLLMTRDPHLTHVHPLEIMMKHRSLVEKLVSYVQGDLSGLIFDEARNCLSQQLTNEALCNYIKVGFHAGPSMNNLHLHIMTLDHVSPSLKNSAHYISFTSPFFVKIDTPTSNLPTRGTLTSLFQEDLKCWRCGETFGRHFTKLKAHLQEEYDDWLDKSVSM
[3]
  decapping of capped RNA: can decap RNA

B2: RppH (protein, UniProt P0A776 1-176, looked up)
RNA pyrophosphohydrolase: MIDDDGYRPNVGIVICNRQGQVMWARRFGQHSWQFPQGGINPGESAEQAMYRELFEEVGLSRKDVRILASTRNWLRYKLPKRLVRWDTKPVCIGQKQKWFLLQLVSGDAEINMQTSSTPEFDGWRWVSYWYPVRQVVSFKRDVYRRVMKEFASVVMSLQENTPKPQNASAYRRKRG
[4]
  decapping of DTB-GTP-capped RNA: effectively decaps
